In test [1] the test system is male C57B1/6J mice exposed to the odor of a predator. Put plainly: Behavioral adaptation to psychological stress (predator odor; EPM and ASR cut-off behavioral criteria). It is filed as in vivo, mouse. The settings on record: single 10-min exposure to odor of a predator, PBS/CFA control 40.8%, P<0.05. The procedure: (iii) Immunization. Each animal was injected with a total of 100 μg of Cop-1 emulsified in an equal volume of complete Freund's adjuvant (CPA) containing 5 mg/ml of Mycobacteria H37 RA (Difco). The emulsion, in a total volume of 0.1 mL, was injected into the flank 1 week before the mouse was first injected with a psychotomimetic drug. Control mice were injected with an equal volume of phosphate-buffered saline (PBS) emulsified in CFA.
(ix) Induction of psychological stress. Mice in the experimental groups were exposed for 10 minutes to thoroughly soiled eat litter (used by a cat for 2 days and sifted for faeces). Control (WT) mice were exposed for the same time to unused litter. […]
Behavior on the EPM was recorded using EthoVision programs (Noldus) that recorded the location of the mouse over the 5-minute test period. […]
Five behavioral parameters were assessed: (1) time spent in the open arms; (2) time spent in the closed arms; (3) number of entries into open arms; (4) number of entries into closed arms; (5) total number of entries into all arms. Mice were recorded as having entered an open or closed arm only when all four paws had passed over the dividing line between open and closed arms. […]
(xi) Acoustic startle response (ASR). […] The ASR and pre-pulse inhibition were measured using two ventilated startle chambers (SR-LAB system, San Diego Instruments, San Diego, Calif.). […]

For test [2], the system named is Treg (CD4+CD25+) co-cultured with effector T cells (Teff). Put plainly: Inhibition assay (co-culturing of Teff with Treg), [3H]-thymidine incorporation. It is filed as cell-based, mice. The settings on record: activated Treg incubated 2 h with Cop-1 20 μg/ml, Cop-1 20 μg/ml also added to co-culture. How it is done: (xviii) Purification of CB4^+CB25^+ and CD4^+CB25^− T cells. Lymph nodes were harvested and mashed. T cells were enriched by negative selection and purified on CD3-cell columns (MTCC-25; R&D Systems). The enriched T cells were incubated with and-CD8 raicrobeads (Miltenyi Biotec, Bergiseh Gladbach, Germany), and negatively selected CD4^+ T cells were incubated with PE-conjugated anti-CD25 (30 μg/10^8 cells) in PBS/2% fetal calf serum. They were then washed and incubated with anti-PE microbeads (Miltenyi Biotec) and subjected to magnetic separation with AutoMACS (Miltenyi Biotec). The retained cells were eluted from the column as purified CD4^+CD25^+ cells. The negative fraction consisted of CD4^+CD25^− T cells. Cell purity was chceked by FACSort (Becton-Dickinson) and typically ranged from 88% to 95%. Purified cells were cultured in 24-well plates (1 ml).
(xix) Activation of CB4^+CD25^+ regulatory T cells. […]
(xx) Inhibition assay (co-culturing of Teff with Treg). […] After the cells were harvested, their analyzed [^3H]-thymidine content was analyzed by the use of a […].
Naïve Teff cells (50×10^3 cells/well) were co-cultured with decreasing numbers ([…] cells/well) of Treg cells that have been activated for 24 h with anti-CD3 and mrIL 2. […] Recorded values are from one representative experiment out of three and are expressed as means±SD of 4 replicates.

Test [3] concerns mice injected with a psychotomimetic drug. Description: Social behavior test. It is filed as in vivo, mouse. The settings on record: vaccinated mice vs controls; data not shown.

Copolymer 1 [Cop-1]: the “Prevalence of maladaptation (behavioral changes) after predator odor” value in test [1] worked out at 14.8%. For the same substance, in test [2], the “Treg-mediated suppression of Teff proliferation” value is recorded as “alleviated the suppression of Teff compared to the control”. The “Communicative behavior in social behavior test” value in test [3] was “better communicative behavior than the controls”.
